Assay results published in PMC9206686, “Expression, characterization, and activity optimization of a novel cellulase from the thermophilic bacteria Cohnella sp. A01” (Scientific Reports, 2022).

Biological target: T1, CelC307 (Cohnella sp. A01, UniProt A0A6C0R5L1)
T1 construct: Ni-NTA or heat-shock purified; GH5 domain predicted 77-362; primers imply N-terminus MGDLERL, C-terminus HAGAR before tag
T1 sequence (A0A6C0R5L1 1-491): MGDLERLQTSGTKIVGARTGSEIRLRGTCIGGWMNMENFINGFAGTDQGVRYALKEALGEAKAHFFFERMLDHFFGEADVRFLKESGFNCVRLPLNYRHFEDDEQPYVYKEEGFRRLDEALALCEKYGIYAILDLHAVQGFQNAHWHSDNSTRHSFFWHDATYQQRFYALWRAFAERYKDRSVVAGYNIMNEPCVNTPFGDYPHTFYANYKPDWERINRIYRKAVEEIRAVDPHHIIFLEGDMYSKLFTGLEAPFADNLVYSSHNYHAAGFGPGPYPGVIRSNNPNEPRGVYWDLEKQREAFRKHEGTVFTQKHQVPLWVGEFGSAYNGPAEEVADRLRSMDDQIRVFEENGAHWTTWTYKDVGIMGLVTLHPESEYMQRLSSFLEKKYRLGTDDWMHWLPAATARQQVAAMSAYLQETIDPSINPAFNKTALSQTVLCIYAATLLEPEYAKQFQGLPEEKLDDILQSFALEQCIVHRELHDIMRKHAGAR
Experiment: DNS reducing-sugar assay, Lineweaver-Burk
Type: biochemical
Details: inhibitor, CMC substrate; […] inhibitor, pH […] °C

Compound	inhibition mode (mixed-type)	inhibition mode (non-competitive)
OCC1(O)OC[C@@H](O)[C@@H](O)[C@@H]1O (stereo partly drawn) [fructose]	the fructose and lactose exhibited the mixed-type inhibition mode	–
OC[C@H]1O[C@H](O[C@H]2[C@H](O)[C@@H](O)C(O)O[C@@H]2CO)[C@H](O)[C@@H](O)[C@@H]1O (stereo partly drawn) [maltose]	–	the inhibition mode of maltose was non-competitive because the Vmax was reduced
OC[C@H]1O[C@@H](O[C@H]2[C@H](O)[C@@H](O)C(O)O[C@@H]2CO)[C@H](O)[C@@H](O)[C@H]1O (stereo partly drawn) [lactose]	the fructose and lactose exhibited the mixed-type inhibition mode	–
